Assay type in all cases: biochemical
One assay concerns the target T1, Human FAAH (MBPΔTMhFAAH) (Homo sapiens, UniProt O00519).
T1 construct: made in house; host or cells: E. coli (pMALcE4 vector)
T1 sequence (O00519 30-579 limits assumed): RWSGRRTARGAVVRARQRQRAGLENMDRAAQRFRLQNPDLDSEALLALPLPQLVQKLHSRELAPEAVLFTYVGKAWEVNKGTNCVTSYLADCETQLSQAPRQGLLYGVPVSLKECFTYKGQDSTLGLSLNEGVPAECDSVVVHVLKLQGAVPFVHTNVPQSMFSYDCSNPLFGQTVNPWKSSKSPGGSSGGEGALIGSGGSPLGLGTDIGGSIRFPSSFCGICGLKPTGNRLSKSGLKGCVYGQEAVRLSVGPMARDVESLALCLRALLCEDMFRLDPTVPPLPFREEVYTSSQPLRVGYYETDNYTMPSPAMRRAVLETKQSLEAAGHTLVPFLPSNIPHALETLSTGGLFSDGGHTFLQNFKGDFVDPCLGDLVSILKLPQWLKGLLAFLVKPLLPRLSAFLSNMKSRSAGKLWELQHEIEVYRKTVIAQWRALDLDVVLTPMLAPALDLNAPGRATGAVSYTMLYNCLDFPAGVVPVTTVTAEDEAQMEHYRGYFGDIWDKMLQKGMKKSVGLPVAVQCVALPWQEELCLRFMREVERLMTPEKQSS
The experiment in a line: Fluorescent assay protocol for hFAAH. The conditions noted are these: human FAAH (MBP fusion, ΔTM), procedure as for rFAAH. The protocol:
Human FAAH without putative transmembrane domain following maltose binding protein was expressed in E. coli cells using pMALcE4 vector Alapafuja et al J. Med. Chem. (2012) 55: 10074-89.
Procedure was followed as described for hMAGL, except that arachidonoyl-methyl coumarin amide (AAMCA) was used as fluorigenic substrate. Compounds were diluted in 50:50 DMSO/assay buffer (50 mM HEPES, 1 mM EDTA, 0.1% BSA, pH 7.4) so as to have a final DMSO concentration below 8% in each reaction. For the screening assay, 3 concentrations (1 μM, 10 μM, and 100 μM) of test compounds, 15 μg of ΔTM rFAAH and assay buffer were pre-incubated for 15 min at 25° C. AAMCA (20 μM, 2×Km) was added prior to incubation at 25° C. and kinetic fluorescence reading every 20 minutes (λex=360/λem=460) for 4 hours on a BioTek Synergy HT Microplate Reader (BioTek Instruments, Winooski, Vt.). The fluorescence reading at the 3 hour time point (linear enzyme kinetics) was used to calculate percent inhibition based on control assays without inhibitor present. All FAAH assays were performed in triplicate for each inhibitor concentration, and IC50 values determined using Prizm software (GraphPad Software, Inc.).
Procedure was followed as described for rFAAH.

A further assay addresses T2, Human MAGL (hMAGL) (Homo sapiens, UniProt Q99685).
T2 construct: hexahistidine; made in house; host or cells: E. coli
T2 sequence (Q99685 1-303): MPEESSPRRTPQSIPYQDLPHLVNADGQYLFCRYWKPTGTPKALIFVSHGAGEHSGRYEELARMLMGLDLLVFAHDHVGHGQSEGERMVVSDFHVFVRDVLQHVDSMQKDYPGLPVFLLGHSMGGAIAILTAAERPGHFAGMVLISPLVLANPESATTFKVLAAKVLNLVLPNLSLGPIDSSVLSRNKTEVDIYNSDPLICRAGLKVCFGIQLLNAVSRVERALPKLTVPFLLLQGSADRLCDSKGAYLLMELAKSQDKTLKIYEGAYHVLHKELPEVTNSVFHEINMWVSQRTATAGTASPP
Description: Fluorescent assay protocol for hMAGL (AHMMCE substrate). The conditions noted are these: recombinant human MAGL, AHMMCE substrate, 15 min preincubation; read-out: IC50 hMAGL. The procedure: (§1) This medium throughput assay involved a 96-well plate format in which hMAGL activity was monitored by the hydrolysis of the substrate 7-hydroxy-6-methoxy-4-methylcoumarin ester (AHMMCE) to form the fluorescent product, coumarin. […] Upon the addition of AHMMCE, the reaction was incubated at 25° C. for 120 min; fluorescence readings were taken every 15 min at 360 nm/460 nm (λexcitation/λemission) using a Synergy HT Plate Reader (Bio-Tek, Winooski, Vt.). […] External standards were used to convert relative fluorescence units to the amount of 4-methylcoumarin formed. All MAGL assays were performed in triplicate for each inhibitor concentration, and IC50 values were calculated using Prizm software (GraphPad Software, Inc., San Diego, Calif.).

Another assay addresses T3, ΔTM rat FAAH (Rattus norvegicus, UniProt P97612).
T3 construct: Preparation of Transmembrane Domain-Deleted Rat FAAH (ΔTM rFAAH); made in house; host or cells: E. coli
T3 sequence (P97612 30-579 limits assumed): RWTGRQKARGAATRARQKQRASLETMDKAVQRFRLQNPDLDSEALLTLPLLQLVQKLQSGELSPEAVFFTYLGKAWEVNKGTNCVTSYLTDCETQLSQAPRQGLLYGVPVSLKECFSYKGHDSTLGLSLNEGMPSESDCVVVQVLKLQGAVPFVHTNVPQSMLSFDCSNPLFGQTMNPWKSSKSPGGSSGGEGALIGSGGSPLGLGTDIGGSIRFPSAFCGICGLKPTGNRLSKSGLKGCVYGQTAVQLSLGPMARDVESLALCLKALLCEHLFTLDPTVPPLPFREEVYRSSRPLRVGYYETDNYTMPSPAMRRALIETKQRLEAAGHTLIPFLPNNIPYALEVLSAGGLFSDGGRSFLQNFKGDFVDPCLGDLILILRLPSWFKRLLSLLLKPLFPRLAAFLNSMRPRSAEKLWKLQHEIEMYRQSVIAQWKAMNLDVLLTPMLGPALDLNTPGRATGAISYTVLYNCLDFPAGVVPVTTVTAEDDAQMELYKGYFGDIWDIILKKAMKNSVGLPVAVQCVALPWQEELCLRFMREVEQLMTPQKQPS
The experiment in a line: Fluorescent assay protocol for ΔTM rat FAAH (AAMCA substrate). The conditions noted are these: 15 min preincubation, read-out: IC50 rFAAH. The protocol:
Procedure was followed as described for hMAGL, except that arachidonoyl-methyl coumarin amide (AAMCA) was used as fluorigenic substrate. […] For the screening assay, 3 concentrations (1 μM, 10 μM, and 100 μM) of test compounds, 15 μg of ΔTM rFAAH and assay buffer were pre-incubated for 15 min at 25° C. […] The fluorescence reading at the 3 hour time point (linear enzyme kinetics) was used to calculate percent inhibition based on control assays without inhibitor present. All FAAH assays were performed in triplicate for each inhibitor concentration, and IC50 values determined using Prizm software (GraphPad Software, Inc.).

A further assay addresses T4, Rat MAGL (rMAGL) (Rattus norvegicus, UniProt Q8R431).
T4 construct: made in house; host or cells: E. coli
T4 sequence (Q8R431 1-303): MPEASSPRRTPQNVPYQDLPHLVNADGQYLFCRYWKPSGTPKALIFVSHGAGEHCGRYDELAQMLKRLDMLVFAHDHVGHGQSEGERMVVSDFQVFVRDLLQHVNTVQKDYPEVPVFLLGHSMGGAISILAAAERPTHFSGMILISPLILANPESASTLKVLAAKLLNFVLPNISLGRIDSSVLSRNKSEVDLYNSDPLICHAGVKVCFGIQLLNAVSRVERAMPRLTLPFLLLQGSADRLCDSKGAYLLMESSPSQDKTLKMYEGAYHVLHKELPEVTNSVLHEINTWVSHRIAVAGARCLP
Description: Fluorescent assay protocol for rMAGL. Particulars: recombinant rat MAGL, procedure as for hMAGL; read-out: IC50 rMAGL. The procedure: as §1
Procedure was followed as described for hMAGL.

The IC50 is the concentration at which inhibition is half-maximal. As to “6-Chloropyridin-2-yl 4-(benzhydryl)piperidine-1-carboxylate [Example 51]”, the IC50 was 10 to 100 nM on Human FAAH (MBPΔTMhFAAH), greater than 1000 nM on Human MAGL (hMAGL), 10 to 100 nM at ΔTM rat FAAH and greater than 1000 nM at Rat MAGL (rMAGL).
For the compound `C[C@@H]1CN(C(=O)Nc2cccc(-c3cccc(C(N)=O)c3)c2)CCN1Cc1ccc2ccccc2n1` [Example 2, (R)—N-(3′-carbamoyl-[1,1′-biphenyl]-3-yl)-3-methyl-4-(quinolin-2-ylmethyl)piperazine-1-carboxamide], the IC50 was greater than 1000 nM on Human FAAH (MBPΔTMhFAAH), greater than 1000 nM on Human MAGL (hMAGL), 110 to 1000 nM at ΔTM rat FAAH and greater than 1000 nM on Rat MAGL (rMAGL).
As for `C[C@H]1CN(Cc2cccc(Oc3ccccc3)c2)CCN1C(=O)Nc1cccc(-c2cccc(C(N)=O)c2)c1` [Example 4, (S)—N-(3′-carbamoyl-[1,1′-biphenyl]-3-yl)-2-methyl-4-(3-phenoxybenzyl)piperazine-1-carboxamide], the IC50 on Human FAAH (MBPΔTMhFAAH) is 10 to 100 nM; at Human MAGL (hMAGL), greater than 1000 nM; on ΔTM rat FAAH, 10 to 100 nM; at Rat MAGL (rMAGL), greater than 1000 nM.
For `C[C@H]1CN(Cc2cccc(Oc3ccccc3)c2)CCN1C(=O)Nc1cncc(-c2cccc(C#N)c2)c1` [Example 5, (S)—N-(5-(3-cyanophenyl)pyridin-3-yl)-2-methyl-4-(3-phenoxybenzyl)piperazine-1-carboxamide], the half-inhibitory concentration (IC50) on Human FAAH (MBPΔTMhFAAH), on Human MAGL (hMAGL), on ΔTM rat FAAH and on Rat MAGL (rMAGL) was greater than 1000 nM in each case.
Consider `NC(=O)c1cccc(-c2cccc(NC(=O)N3CCN(Cc4cnc5ccccc5c4)CC3)c2)c1` [Example 6, N-(3′-carbamoyl-[1,1′-biphenyl]-3-yl)-4-(quinolin-3-ylmethyl)piperazine-1-carboxamide], for which the IC50 lay within 10 to 100 nM at Human FAAH (MBPΔTMhFAAH), 110 to 1000 nM at Human MAGL (hMAGL), 10 to 100 nM at ΔTM rat FAAH and 110 to 1000 nM at Rat MAGL (rMAGL).
Take `NC(=O)c1cccc(-c2cccc(NC(=O)N3CCN(C4c5ccccc5-c5ccccc54)CC3)c2)c1` [Example 8, N-(3′-carbamoyl-[1,1′-biphenyl]-3-yl)-4-(9H-fluoren-9-yl)piperazine-1-carboxamide]: the IC50 at Human FAAH (MBPΔTMhFAAH) was 10 to 100 nM; at Human MAGL (hMAGL), greater than 1000 nM; at ΔTM rat FAAH it was 10 to 100 nM; at Rat MAGL (rMAGL), greater than 1000 nM.
In the case of `NC(=O)c1cccc(-c2cccc(NC(=O)N3CCN(c4ccccn4)CC3)c2)c1` [Example 9, N-(3′-carbamoyl-[1,1′-biphenyl]-3-yl)-4-(pyridin-2-yl)piperazine-1-carboxamide], the IC50 is 10 to 100 nM on Human FAAH (MBPΔTMhFAAH), greater than 1000 nM on Human MAGL (hMAGL), 10 to 100 nM at ΔTM rat FAAH and greater than 1000 nM at Rat MAGL (rMAGL).
In the case of `NC(=O)c1cccc(-c2cccc(NC(=O)N3CCN(Cc4ccc(-c5ccccc5)cc4)CC3)c2)c1` [Example 10, 4-([1,1′-biphenyl]-4-ylmethyl)-N-(3′-carbamoyl-[1,1′-biphenyl]-3-yl)piperazine-1-carboxamide], the IC50 at Human FAAH (MBPΔTMhFAAH) is 10 to 100 nM; on Human MAGL (hMAGL), greater than 1000 nM; on ΔTM rat FAAH it was 10 to 100 nM; at Rat MAGL (rMAGL) it was greater than 1000 nM.
For the compound `CC(C)C(c1ccccc1)N1CCN(C(=O)Oc2cccc(C#N)c2)CC1` (stereo not shown) [Example 35, 3-Cyanophenyl 4-(2-methyl-1-phenylpropyl)piperazine-1-carboxylate], the IC50 at Human FAAH (MBPΔTMhFAAH), at Human MAGL (hMAGL) and at ΔTM rat FAAH was greater than 1000 nM throughout.
In the case of `N#Cc1cccc(OC(=O)N2CCN(C(c3ccccc3)C3CCCC3)CC2)c1` (stereo not shown) [Example 37, 3-cyanophenyl 4-(cyclopentyl(phenyl)methyl)piperazine-1-carboxylate], the IC50 on Human FAAH (MBPΔTMhFAAH) and on ΔTM rat FAAH was 10 to 100 nM each time.
On to `N#Cc1cccc(OC(=O)N2CCN(C(c3ccc(F)cc3)c3ccc(F)cc3)CC2)c1` [Example 40, 3-cyanophenyl 4-(bis(4-fluorophenyl)methyl)piperazine-1-carboxylate], for which the concentration for half-maximal inhibition (IC50) at Human FAAH (MBPΔTMhFAAH) and on ΔTM rat FAAH was greater than 1000 nM each time.
As for `N#Cc1cccc(OC(=O)N2CCN(C3c4ccccc4-c4ccccc43)CC2)c1` [Example 41, 3-cyanophenyl 4-(9H-fluoren-9-yl)piperazine-1-carboxylate], the IC50 on Human FAAH (MBPΔTMhFAAH) and on ΔTM rat FAAH was 110 to 1000 nM each time.
For `N#Cc1cccc(OC(=O)N2CCN(C(c3ccccc3)c3ccccc3)CC2)c1` [Example 44, 3-Cyanophenyl 4-benzhydrylpiperazine-1-carboxylate], the IC50 at Human FAAH (MBPΔTMhFAAH) and on ΔTM rat FAAH was 10 to 100 nM in each case.
On to `N#Cc1ccc(F)c(OC(=O)N2CCC(C(c3ccccc3)c3ccccc3)CC2)c1` [Example 49, 5-cyano-2-fluorophenyl 4-benzhydrylpiperidine-1-carboxylate], for which the IC50 on Human FAAH (MBPΔTMhFAAH) and on ΔTM rat FAAH was greater than 1000 nM each time.
`N#Cc1cc(O)cc(OC(=O)N2CCC(C(c3ccccc3)c3ccccc3)CC2)c1` [Example 50, 3-cyano-5-hydroxyphenyl 4-benzhydrylpiperidine-1-carboxylate]: the 50% inhibitory concentration (IC50) at Human FAAH (MBPΔTMhFAAH) and at ΔTM rat FAAH was greater than 1000 nM in each case.
`N#Cc1cccc(OC(=O)N2CCC(OC(c3ccccc3)c3ccccc3)CC2)c1` [Example 58, 3-cyanophenyl 4-(benzhydryloxy)piperidine-1-carboxylate]: the IC50 at Human FAAH (MBPΔTMhFAAH) and at ΔTM rat FAAH was greater than 1000 nM each time.

For the origin of these results see patent US11214578B2, “Urea/carbamates FAAH MAGL or dual FAAH/MAGL inhibitors and uses thereof” (Northeastern University, priority 2014, dated 2022).
